In patent US20210084900A1, “Substituted 5-(haloalkyl)-5-hydroxy-isoxazoles for Combating Phytopathogenic Fungi” (BASF SE, priority 2017, published 2021):

Legend:
Phakopsora pachyrhizi = assay: Protective control of soy bean rust on soy beans, inoculation 1 day after spraying (glass house trial 2); type: in vivo; conditions: 600 ppm, protective (1 day), untreated plants 100% diseased leaf area
Protocol: (§1) Spray solutions were prepared in several steps. A mixture was prepared of acetone and/or dimethylsulfoxide and the wetting agent/emulsifier Wettol, which is based on ethoxylated alkylphenoles, in a relation (volume) solvent-emulsifier of 99 to 1 was added to 25 mg of the compound to give a total of 5 ml. Water was then added to a total volume of 100 ml. This stock solution was diluted with the described solvent-emulsifier-water mixture to the given concentration.
2. Protective Control of Soy Bean Rust on Soy Beans Caused by Phakopsora pachyrhizi
Leaves of pot-grown soy bean seedlings were sprayed to run-off with an aqueous suspension, containing the concentration of active ingredient or their mixture as described below. The plants were allowed to air-dry. The trial plants were cultivated for 1 day in a greenhouse chamber at 23 to 27° C. and a relative humidity between 60 and 80%.Then the plants were inoculated with spores of Phakopsora pachyrhizi. To ensure the success the artificial inoculation, the plants were transferred to a humid chamber with a relative humidity of about 95% and 20 to 24° C. for 24 hours. The trial plants were cultivated for fourteen days in a greenhouse chamber at 23 to 27° C. and a relative humidity between 60 and 80%. The extent of fungal attack on the leaves was visually assessed as % diseased leaf area.

Sclerotinia sclerotiorum = assay: Preventative fungicidal control of rape stem rot on soy beans (glass house trial 5); type: in vivo; conditions: 300 ppm, soy bean, untreated plants 90% diseased leaf area
Protocol: as §1
5. Preventative Fungicidal Control of Rape Stem Rot on Soy Beans Caused by (Sclerotinia scierotiorum
Young seedlings of soy beans were grown in pots. These plants were sprayed to run-off with an aqueous suspension, containing the concentration of active ingredient or mixture mentioned in the table below. The next day the treated plants were inoculated: Rye and millet grains were infected with Sclerotinia sclerotiorum. After the infection the grains were air dried for a week. The grains were powdered with a mixer. A small amount of powder was brought onto the soy bean (leaves). Then the trial plants were cultivated for 7 days in a greenhouse chamber at 23° C. and a relative humidity between 80 an 85%. The extent of fungal attack on the leaves was visually assessed with a classification method: 0, 33, 50, 67 and 100% disease of leaf area and stem.

Puccinia recondita = assay: Preventative control of brown rust on wheat (glass house trial 6); type: in vivo; conditions: 300 ppm, preventative (inoculation 7 days after spraying), untreated plants 100% diseased leaf area
Protocol: as §1
6. Preventative Control of Brown Rust on Wheat Caused by Puccinia recondita
The first two developed leaves of pot-grown wheat seedling were sprayed to run-off with an aqueous suspension, containing the concentration of active ingredient or their mixture as described below. Seven days later the plants were inoculated with spores of Puccinia recondita. To ensure the success the artificial inoculation, the plants were transferred to a humid chamber without light and a relative humidity of 95 to 99% and 20 to 24° C. for 24 hours. Then the trial plants were cultivated for 6 days in a greenhouse chamber at 20 to 24° C. and a relative humidity between 65 and 70%. The extent of fungal attack on the leaves was visually assessed as % diseased leaf area.

COC1(C(F)(F)F)CC(c2ccc(CN(C)C(=O)C3CC3)cc2)=NO1 (centres unmarked) [Ex-13]
diseased leaf area (Phakopsora pachyrhizi): 0%

COC1(C(F)(F)F)CC(c2ccc(CNC(=O)C3CC3)cc2)=NO1 (centres unmarked) [Ex-19]
diseased leaf area (Phakopsora pachyrhizi): 0%

CN(C(=O)c1ccc(C2=NOC(O)(C(F)(F)F)C2)cc1)c1ccccc1 (centres unmarked) [Ex-2]
diseased leaf area (Sclerotinia sclerotiorum): 0%
diseased leaf area (Phakopsora pachyrhizi): 0%

O=C(Nc1ccccc1)c1ccc(C2=NOC(OC(=O)C3CCCO3)(C(F)(F)F)C2)cc1 (centres unmarked) [Ex-28]
diseased leaf area (Sclerotinia sclerotiorum): 0%
diseased leaf area (Phakopsora pachyrhizi): 0%

CC(=O)OC1(C(F)(F)F)CC(c2ccc(CNC(=O)C3CC3)cc2)=NO1 (centres unmarked) [Ex-18]
diseased leaf area (Sclerotinia sclerotiorum): 0%
diseased leaf area (Phakopsora pachyrhizi): 0%

CC(=O)OC1(C(F)(F)F)CC(c2ccc(CN(C)C(=O)C3CC3)cc2)=NO1 (centres unmarked) [Ex-15]
diseased leaf area (Puccinia recondita): 12%
diseased leaf area (Sclerotinia sclerotiorum): 0%
diseased leaf area (Phakopsora pachyrhizi): 0%

CN(Cc1ccc(C2=NOC(O[Si](C)(C)C)(C(F)(F)F)C2)cc1)C(=O)C1CC1 (centres unmarked) [Ex-14]
diseased leaf area (Phakopsora pachyrhizi): 0%

CNC(=O)c1ccc(C2=NOC(OC(=O)C3CC3)(C(F)(F)F)C2)cc1 (centres unmarked) [Ex-42]
diseased leaf area (Phakopsora pachyrhizi): 0%

CCOCC(=O)OC1(C(F)(F)F)CC(c2ccc(C(=O)Nc3ccccc3)cc2)=NO1 (centres unmarked) [Ex-30]
diseased leaf area (Sclerotinia sclerotiorum): 0%
diseased leaf area (Phakopsora pachyrhizi): 0%

O=C(Nc1ccccc1)c1ccc(C2=NOC(OC(=O)N3CCOCC3)(C(F)(F)F)C2)cc1 (centres unmarked) [Ex-27]
diseased leaf area (Sclerotinia sclerotiorum): 0%

O=C(Nc1ccccc1)c1ccc(C2=NOC(OC(=O)N3CCCC3)(C(F)(F)F)C2)cc1 (centres unmarked) [Ex-26]
diseased leaf area (Sclerotinia sclerotiorum): 0%

CC(C)CC(=O)OCOC1(C(F)(F)F)CC(c2ccc(C(=O)Nc3ccccc3)cc2)=NO1 (centres unmarked) [Ex-40]
diseased leaf area (Phakopsora pachyrhizi): 0%

O=C(Nc1ccccc1)c1ccc(C2=NOC(O)(C(F)(F)F)C2)cc1 (centres unmarked) [Ex-7, 4-[5-Hydroxy-5-(trifluoromethyl)-4H-isoxazol-3-yl]-N-phenyl-benzamide]
melting point: 217 °C

O=C(NCc1ccc(C2=NOC(O)(C(F)(F)F)C2)cc1)C1CC1 (centres unmarked) [Ex-4, N-[[4-[5-hydroxy-5-(trifluoromethyl)-4H-isoxazol-3-yl]phenyl]methyl]cyclopropanecarboxamide]
melting point: 207 °C
